Experimental data as given in ChEMBL document CHEMBL1158833, “Roquefortine E, a diketopiperazine from an Australian isolate of Gymnoascus reessii” (2005).
Converted amounts (≈) assume the structure as drawn.

How the values were obtained:
Bacillus subtilis = assay: Antimicrobial activity against Bacillus subtilis; assay type: functional
[1] = Cytotoxicity against mouse NS1 cells; assay type: functional

| Compound | MIC (Bacillus subtilis) [µg/mL] | LD99 [1] [µg/mL] |
| --- | --- | --- |
| C=CC(C)(C)[C@@]12C[C@H]3C(=O)N/C(=C/c4c[nH]cn4)C(=O)N3[C@@H]1Nc1ccccc12 [ROQUEFORTINE C] | 6.3 (≈ 16.2 µM) | 50 |
| C=CC(C)(C)c1[nH]cnc1/C=C1/NC(=O)[C@@H]2C[C@@]3(C(C)(C)C=C)c4ccccc4N[C@H]3N2C1=O [ROQUEFORTINE E] |  | 24 |
